# Data from patent US10421755B2, “Salts of aza-bicyclic di-aryl ethers and methods to make them or their precursors” (Novartis AG, priority 2011, dated 2019).
# How the values were obtained:
# mice = assay: Social Recognition Test in mice; assay type: in vivo; settings: oral, dose 0.3 mg/kg, familiar partner at 24 h vs time 0
# Description: Assay: Social interactions between two experimental animals are influenced by their degree of familiarity: the better they know each other, the less time they spend on mutual scrutiny at each meeting. […] Memory enhancing agents (i.e. oxiracetam) facilitate learning to the extent that the previously met (familiar) partner is still remembered after 24 h, whereas in vehicle treated control animals the memory usually fades after less than 1 hour (Thor and Holloway, 1982) or after 2-3 hours.
# Baseline-test: Pairs consisting of one adult and one young mouse were assigned at random to the experimental and control groups. In each pair only the adult mouse was orally treated 1 hour before the trial with either vehicle or the test compound. The duration of active contacts of the adult mouse with the young mouse was manually recorded over a period of 3 min, including the following behavioural, approach-related items: sniffing, nosing, grooming, licking, pawing and playing, anogenital exploration and orientation toward the young mouse; orientation, thereby, was defined as tip of nose of the adult mouse less than approximately 1 cm distant from the young mouse's body. […]
# Aqueous solubility = assay type: physicochemical
# [1] = Loss on drying / initial water content; assay type: physicochemical; parameters: Initial water content: unit not given here
smiles,measurement,setting,value
"Cc1ccc(-c2ccc(O[C@H]3CN4CCC3CC4)cn2)cc1 [Compound A, (R)-3-(6-(4-methylphenyl)-pyridin-3-yloxy)-1-aza-bicyclo[2.2.2]octane]",Reduction in time scrutinizing in % ± SEM at 24 h,mice,36 ± 6%
same,aqueous solubility (in words),Aqueous solubility,low
same,solubility,"Aqueous solubility; aqueous medium, comparison table, Example 7",50 µg/mL
same,Loss on drying (LOD) of a sample,[1],0.1%
same,Initial water content,"[1]; comparison table, Example 7",0.1
